Source: patent publication US20100076015A1, “Aminopyridine Derivatives” (VANTIA LIMITED, priority 2008, published 2010)
pIC50: −log10 of the molar value.

These molecules were tested against T1, Human KLK1 (Homo sapiens, UniProt P06870) (assay: Determination of the IC50 for KLK1 (fluorogenic substrate H-DVal-Leu-Arg-AFC)). Settings: 37° C.
T1 construct: purchased Callbiochem (Calbiochem)
Format: biochemical
In short: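 hKLK1 + H-DVal-Leu-Arg-AFC, 37° C, varied cpd conc. Initial rate by A410 change → residual activity → IC50.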

T1 sequence (P06870 25-262): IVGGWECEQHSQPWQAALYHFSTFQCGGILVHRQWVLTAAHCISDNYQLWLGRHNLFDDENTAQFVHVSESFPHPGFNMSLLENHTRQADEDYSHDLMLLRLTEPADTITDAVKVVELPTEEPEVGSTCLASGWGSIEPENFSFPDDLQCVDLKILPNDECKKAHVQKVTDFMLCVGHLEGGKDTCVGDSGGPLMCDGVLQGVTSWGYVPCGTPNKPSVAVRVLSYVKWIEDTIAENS

| Molecule | pIC50 |
| --- | --- |
| COc1ccc(CN(C)CC(=O)N[C@@H](Cc2ccc(F)c(F)c2)C(=O)NCc2ccc(N)nc2)cc1 [Example 166, (S)—N-(6-Amino-pyridin-3-ylmethyl)-3-(3,4-difluoro-phenyl)-2-{2-[(4-methoxy-benzyl)-methyl-amino]-acetylamino}-propionamide] | 6.14 |
| CC(C)N(C)[C@H](C)C(=O)N[C@@H](Cc1ccc(F)c(F)c1)C(=O)NCc1ccc(N)nc1 [Example 175, (R)—N-[(S)-1-[(6-Amino-pyridin-3-ylmethyl)-carbamoyl]-2-(3,4-difluoro-phenyl)-ethyl]-2-(isopropyl-methyl-amino)-propionamide] | 8.70 |
| CN(C)[C@@H](Cc1ccccc1)C(=O)N[C@@H](Cc1ccc(F)c(F)c1)C(=O)NCc1ccc(N)nc1 [Example 351, (S)—N-[(S)-1-[(6-Amino-pyridin-3-ylmethyl)-carbamoyl]-2-(3,4-difluoro-phenyl)-ethyl]-2-dimethylamino-3-phenyl-propionamide] | 8.06 |
| CCC(C)[C@@H](NS(C)(=O)=O)C(=O)N[C@@H](Cc1ccc(Cl)c(Cl)c1)C(=O)NCc1ccc(N)nc1 (stereo partly drawn) [Example 211, (R)-2-Methanesulfonylamino-3-methyl-pentanoic acid [(S)-1-[(6-amino-pyridin-3-ylmethyl)-carbamoyl]-2-(3,4-dichloro-phenyl)-ethyl]-amide] | 9.54 |
| Cc1cc[nH]c1C(=O)N[C@@H](Cc1cc(Cl)ccc1Cl)C(=O)NCc1ccc(N)nc1 [Example 263, 3-Methyl-1H-pyrrole-2-carboxylic acid [(S)-1-[(6-amino-pyridin-3-ylmethyl)-carbamoyl]-2-(2,5-dichloro-phenyl)-ethyl]-amide] | 7.69 |
| CNCC(=O)N[C@@H](Cc1ccc(Cl)c(Cl)c1)C(=O)NCc1ccc(N)nc1 [Example 69, (S)—N-(6-Amino-pyridin-3-ylmethyl)-3-(3,4-dichloro-phenyl)-2-(2-methylamino-acetylamino)-propionamide] | 7.37 |
| CN1CCC[C@@H]1C(=O)N[C@@H](Cc1ccc(Cl)cc1Cl)C(=O)NCc1ccc(N)nc1 [Example 110, (R)-1-Methyl-pyrrolidine-2-carboxylic acid [(S)-1-[(6-amino-pyridin-3-ylmethyl)-carbamoyl]-2-(2,4-dichloro-phenyl)-ethyl]-amide] | 8.40 |
| Cc1cc(C)c(C(=O)N[C@@H](Cc2c[nH]c3ccccc23)C(=O)NCc2ccc(N)nc2C)[nH]1 [Example 283, 3,5-Dimethyl-1H-pyrrole-2-carboxylic acid [(S)-1-[(6-amino-2-methyl-pyridin-3-ylmethyl)-carbamoyl]-2-(1H-indol-3-yl)-ethyl]-amide] | 8.29 |
| C[C@@H](C(=O)N[C@@H](Cc1ccc(F)cc1)C(=O)NCc1ccc(N)nc1)N1CCCCC1 [Example 375, (S)—N-[(S)-1-[(6-Amino-pyridin-3-ylmethyl)-carbamoyl]-2-(4-fluoro-phenyl)-ethyl]-2-piperidin-1-yl-propionamide] | 8.31 |
| (R)—N-[(S)-1-[(6-Amino-pyridin-3-ylmethyl)-carbamoyl]-2-(3,4-dichloro-phenyl)-ethyl]-3-methyl-2-methylamino-butyramide [Example 340] | 9.42 |
| Nc1ccc(CNC(=O)[C@H](CC2CCCCC2)NC(=O)c2cc3ccccc3[nH]2)cn1 [Example 338, 1H-Indole-2-carboxylic acid {(S)-1-[(6-amino-pyridin-3-ylmethyl)-carbamoyl]-2-cyclohexyl-ethyl}-amide] | 6.06 |
| CCC(C)[C@@H](N)C(=O)N[C@@H](Cc1c[nH]c2ccccc12)C(=O)NCc1ccc(N)nc1 (stereo partly drawn) [Example 40, (R)-2-Amino-3-methyl-pentanoic acid [(S)-1-[(6-amino-pyridin-3-ylmethyl)-carbamoyl]-2-(1H-indol-3-yl)-ethyl]-amide] | 8.18 |
| C[C@@H](C(=O)N[C@@H](CC1CCCCC1)C(=O)NCc1ccc(N)nc1)N(C)C [Example 391, (S)—N-{(S)-1-[(6-Amino-pyridin-3-ylmethyl)-carbamoyl]-2-cyclohexyl-ethyl}-2-dimethylamino-propionamide] | 7.31 |
| Nc1ccc(CNC(=O)[C@H](Cc2cccc3ccccc23)NC(=O)[C@H]2CCCCN2)cn1 [Example 75, (R)-Piperidine-2-carboxylic acid {(S)-1-[(6-amino-pyridin-3-ylmethyl)-carbamoyl]-2-naphthalen-1-ylethyl}-amide] | 8.66 |
| Nc1ccc(CNC(=O)[C@H](Cc2ccc(F)c(F)c2)NC(=O)[C@H]2CCCN2CC(=O)O)cn1 [Example 135, {(R)-2-[(S)-1-[(6-Amino-pyridin-3-ylmethyl)-carbamoyl]-2-(3,4-difluoro-phenyl)-ethylcarbamoyl]-pyrrolidin-1-yl}-acetic acid] | 7.76 |
| Cc1cc(C)c(C(=O)N[C@@H](Cc2ccccc2C(F)(F)F)C(=O)NCc2ccc(N)nc2C)[nH]1 [Example 282, 3,5-Dimethyl-1H-pyrrole-2-carboxylic acid [(S)-1-[(6-amino-2-methyl-pyridin-3-ylmethyl)-carbamoyl]-2-(2-trifluoromethyl-phenyl)-ethyl]-amide] | 8.89 |

| Molecule | pIC50 |
| --- | --- |
| Nc1ccc(CNC(=O)[C@H](Cc2cc(F)c(F)cc2F)NC(=O)c2cc3ccccc3[nH]2)cn1 [Example 324, 1H-Indole-2-carboxylic acid [(S)-1-[(6-amino-pyridin-3-ylmethyl)-carbamoyl]-2-(2,4,5-trifluoro-phenyl)-ethyl]-amide] | 7.16 |
| CC(C)CN(C)CC(=O)N[C@@H](Cc1ccc(F)c(F)c1)C(=O)NCc1ccc(N)nc1 [Example 168, (S)—N-(6-Amino-pyridin-3-ylmethyl)-3-(3,4-difluoro-phenyl)-2-[2-(isobutyl-methyl-amino)-acetylamino]-propionamide] | 6.54 |
| Nc1ccc(CNC(=O)[C@H](Cc2ccc(F)c(F)c2)NC(=O)[C@H](N)Cc2ccccc2)cn1 [Example 80, (R)-2-Amino-N-[(S)-1-[(6-amino-pyridin-3-ylmethyl)-carbamoyl]-2-(3,4-difluoro-phenyl)-ethyl]-3-phenyl-propionamide] | 7.79 |
| CC(C(=O)N[C@@H](Cc1cc(F)cc(F)c1)C(=O)NCc1ccc(N)nc1)N1CCCCC1 (stereo partly drawn) [Example 425, N-[(S)-1-[(6-Amino-pyridin-3-ylmethyl)-carbamoyl]-2-(3,5-difluoro-phenyl)-ethyl]-2-piperidin-1-yl-propionamide] | 7.83 |
| CC(C)CN(C)CC(=O)N[C@@H](Cc1ccc(Cl)c(Cl)c1)C(=O)NCc1ccc(N)nc1 [Example 154, (S)—N-(6-Amino-pyridin-3-ylmethyl)-3-(3,4-dichloro-phenyl)-2-[2-(isobutyl-methyl-amino)-acetylamino]-propionamide] | 6.67 |
| CN[C@@H](C(=O)N[C@@H](Cc1ccc(F)cc1)C(=O)NCc1ccc(N)nc1)C(C)C [Example 89, (R)—N-[(S)-1-[(6-Amino-pyridin-3-ylmethyl)-carbamoyl]-2-(4-fluoro-phenyl)-ethyl]-3-methyl-2-methylamino-butyramide] | 7.96 |
| Cc1ccc(C[C@H](NC(=O)[C@H]2CCCN2C(C)C)C(=O)NCc2ccc(N)nc2)cc1 [Example 123, (R)-1-Isopropyl-pyrrolidine-2-carboxylic acid {(S)-1-[(6-amino-pyridin-3-ylmethyl)-carbamoyl]-2-p-tolyl-ethyl}-amide] | 8.85 |
| CCC(C)[C@@H](N)C(=O)N[C@@H](CC1CCCC2CCCCC21)C(=O)NCc1c(C)cc(N)nc1C (stereo partly drawn) [Example 208, (R)-2-Amino-3-methyl-pentanoic acid [(S)-1-[(6-amino-2,4-dimethyl-pyridin-3-ylmethyl)-carbamoyl]-2-(decahydro-naphthalen-1-yl)-ethyl]-amide] | 7.49 |
| Nc1ccc(CNC(=O)[C@H](Cc2c(F)c(F)c(F)c(F)c2F)NC(=O)c2cc3ccccc3[nH]2)cn1 [Example 329, 1H-Indole-2-carboxylic acid {(S)-1-[(6-amino-pyridin-3-ylmethyl)-carbamoyl]-2-pentafluorophenyl-ethyl}-amide] | 6.52 |
| CN(C)[C@@H](C(=O)N[C@@H](Cc1ccc(F)cc1)C(=O)NCc1ccc(N)nc1)C(C)(C)C [Example 183, (R)—N-[(S)-1-[(6-Amino-pyridin-3-ylmethyl)-carbamoyl]-2-(4-fluoro-phenyl)-ethyl]-2-dimethylamino-3,3-dimethyl-butyramide] | 8.29 |
| Nc1ccc(CNC(=O)[C@H](Cc2cccc3ccccc23)NC(=O)c2cc3cc(F)ccc3[nH]2)cn1 [Example 301, 5-Fluoro-1H-indole-2-carboxylic acid {(S)-1-[(6-amino-pyridin-3-ylmethyl)-carbamoyl]-2-naphthalen-1-yl-ethyl}-amide] | 7.96 |
| CC(C)C[C@H](NC(=O)[C@H](C)N(C)C(C)C)C(=O)NCc1ccc(N)nc1 [Example 427, (S)-2-[(S)-2-(Isopropyl-methyl-amino)-propionylamino]-4-methyl-pentanoic acid (6-amino-pyridin-3-ylmethyl)-amide] | 6.97 |
| COc1ccc(C[C@H](NC(=O)c2[nH]c(C)cc2C)C(=O)NCc2ccc(N)nc2)cc1 [Example 254, 3,5-Dimethyl-1H-pyrrole-2-carboxylic acid [(S)-1-[(6-amino-pyridin-3-ylmethyl)-carbamoyl]-2-(4-methoxy-phenyl)-ethyl]-amide] | 7.43 |
| Cc1nc(N)ccc1CNC(=O)[C@H](Cc1ccc(Cl)c(Cl)c1)NC(=O)[C@H]1CCCCN1 [Example 201, (R)-Piperidine-2-carboxylic acid [(S)-1-[(6-amino-2-methyl-pyridin-3-ylmethyl)-carbamoyl]-2-(3,4-dichloro-phenyl)-ethyl]-amide] | 8.89 |
| Cc1cc[nH]c1C(=O)N[C@@H](Cc1cccc(Cl)c1)C(=O)NCc1ccc(N)nc1 [Example 266, 3-Methyl-1H-pyrrole-2-carboxylic acid [(S)-1-[(6-amino-pyridin-3-ylmethyl)-carbamoyl]-2-(3-chloro-phenyl)-ethyl]-amide] | 8.24 |
| Nc1ccc(CNC(=O)[C@H](Cc2ccc(F)c(F)c2)NC(=O)c2cc3ccccc3[nH]2)cn1 [Example 325, 1H-Indole-2-carboxylic acid [(S)-1-[(6-amino-pyridin-3-ylmethyl)-carbamoyl]-2-(3,4-difluoro-phenyl)-ethyl]-amide] | 7.67 |
